The record followed here is PubChem BioAssay AID743296 (The Scripps Research Institute Molecular Screening Center, 2014).

The source made the active and inactive calls. The rule behind the calls is not given here. A value given as a limit tells only on which side of the number the result lay.

The target in the assay is CCHFV viral ovarian tumor domain protease (vOTU, L protein). In words: CCHFV vOTU protease inhibitor potency, dose response, biochemical, fluorescence, Pep-AMC substrate (AID 743296). Conditions: recombinant CCHFV vOTU.
In the case of `COC(CNC(=O)c1ccc2c3c(onc13)-c1ccccc1C2=O)OC`, the IC50 (usually the concentration that inhibits the measured activity by half) is 7.11 µM.
For `Cc1cnc(C2OCCO2)c2cccc(N)c12`, the IC50 entry was “inactive”.
As to `CCOC(=O)c1c2c(n(Cc3ccccc3)c1C)C(=O)C(=O)c1ccccc1-2`, the IC50 is 2.12 µM.
As for `O=C(O)CSc1cc(NS(=O)(=O)c2ccc(Cl)cc2)c2ccccc2c1O`, the IC50 is 3.4 µM.
The same measure for `CC1CCCC(NC(=O)COC(=O)c2ccc([N+](=O)[O-])s2)C1C` (configuration not stated): 9.29 µM; for `Cc1ccccc1-c1cc2c(nn1)-c1ccccc1C2=O`: 0.545 µM.
Take `COc1cc(NC(=O)COC(=O)c2ccc([N+](=O)[O-])s2)cc(OC)c1OC`: the IC50 was 8.38 µM.
As for `O=S(=O)(Nc1cc2nc3ccccc3nc2n1Cc1ccccc1)c1ccc(Cl)cc1`, the IC50 is 4.14 µM.
As for `O=C(c1ccco1)[C@@H]1[C@@H]2C(=O)N(c3ccc(Br)cc3)C(=O)[C@@H]2C2c3ccccc3C=CN21` (some centres not stated), the IC50 was 5.18 µM.
On to `O=C(NC1=C(NC2CCS(=O)(=O)C2)C(=O)c2ccccc2C1=O)c1ccccc1` (configuration not stated), for which the IC50 was 2.79 µM.
Regarding `NS(=O)(=O)c1ccc(NC(=O)COC(=O)c2ccc([N+](=O)[O-])s2)cc1`, the IC50 is 8.1 µM.
As for `O=C(COC(=O)c1ccc([N+](=O)[O-])s1)Nc1ccccc1`, the figure is 8.21 µM; as for `COc1cc2c(cc1O)[C@@H]1Cc3ccc(OC)c(O)c3CN1CC2`, “inactive”.
As for `O=C1Cc2ccccc2C(=O)N1`, the figure is 0.419 µM; as for `NS(=O)(=O)c1ccc(NC2=CC(=O)C(=O)c3ccccc32)cc1`, 4.22 µM.
For the molecule `O=C(COC(=O)c1ccc([N+](=O)[O-])s1)Nc1ccc(F)cc1`, the IC50 was 7.27 µM.
Regarding `CCc1cc[n+](C2=C(NS(=O)(=O)c3cccs3)C(=O)c3ccccc3C2=O)cc1`, the IC50 was 3.5 µM.
As for `Cc1ccc2c(c1C)-c1c(ccc(C)c1C)C(=O)C2=O`, the figure is 7.46 µM; as for `COc1cc(Br)c(C(=O)c2nccc3cc(OC)c(OC)cc23)cc1OC`, 0.276 µM; as for `Cc1ccc(N2C(=O)[C@@H]3[C@H](C2=O)C2c4ccccc4C=CN2[C@@H]3C(=O)c2ccco2)cc1` (some centres not stated), 6.53 µM.
As for `O=C(O)CSc1cc(NS(=O)(=O)c2ccc(Br)cc2)c2ccccc2c1O`, the figure is 1.66 µM; as for `S=C(Nc1ccc(Cl)cc1)Nc1cccc2cnccc12`, “inactive”.
The same measure for `COc1cc(C(=O)c2nccc3cc(OC)c(OC)cc23)c([N+](=O)[O-])cc1OC`: 1.42 µM; for `O=C1Cc2ccccc2C(=O)N1CCc1ccccc1`: 0.901 µM; for `CC(=O)c1ccc(NC(=S)Nc2cccc3cnccc23)cc1`: > 115 µM (inactive).
As for `CCOC(=O)C1=C(COC(=O)c2ccc([N+](=O)[O-])s2)NC(=O)NC1C` (configuration not stated), the IC50 was 7.97 µM.
Regarding `O=C1OC(Nc2cc(Br)cc3cccnc23)c2ccccc21` (configuration not stated), the IC50 is > 115 µM (inactive).
On to `COc1ccc2noc3c2c1C(=O)c1ccccc1-3`, for which the half-inhibitory concentration (IC50) was 8.11 µM.
Regarding `Cc1ccc(NC2=CC(=O)C(=O)c3ccccc32)cc1`, the IC50 was 5.14 µM.
With `O=C(OCc1nnc(-c2ccccc2)o1)c1ccc([N+](=O)[O-])s1`, the IC50 is 6.91 µM.
Regarding `O=C(O)CSc1cc(NS(=O)(=O)c2cccc([N+](=O)[O-])c2)c2ccccc2c1O`, the IC50 was 1.95 µM.
In the case of `COc1cc(NCCCC(C)N)c2ncccc2c1` (configuration not stated), the IC50 is > 115 µM (inactive).
As for `CN(C1=C(NC(=O)c2ccccc2)C(=O)c2ccccc2C1=O)C1CCS(=O)(=O)C1` (configuration not stated), the figure is 2.67 µM.
Regarding `CC1COCC(C)N1C1=C(Cl)C(=O)c2ccccc2C1=O` (configuration not stated), the IC50 is 7.43 µM.
On to `CC1(C)C=C2C(=NN(c3ccccc3)C(N)=C2C#N)CO1`, for which the IC50 was 1.54 µM.
As for `O=C(/C=C/c1ccc(O)cc1)c1ccc(NC2=C(N3CCCCC3)C(=O)c3ccccc3C2=O)cc1`, the figure is 4.19 µM.
`Cc1c(Cl)cnc(NC(=O)COC(=O)c2ccc([N+](=O)[O-])s2)c1Cl`: the IC50 result is “inactive”.
Take `COc1ccccc1NC(=O)COC(=O)c1ccc([N+](=O)[O-])s1`: the IC50 is 7.82 µM.
In the case of `CC(C)=CCC1=C(OCC(=O)O)C(=O)c2ccccc2C1=O`, the IC50 is 3.23 µM.
As for `NC1=C(Cl)C(=O)c2ccc(S(N)(=O)=O)cc2C1=O`, the IC50 is 0.122 µM.
Regarding `COc1cc(NCCCCCCN)c2ncccc2c1OC`, the IC50 result was “inactive”.
As for `Cn1nc(-c2ccccn2)nc2c(=O)n(C)c(=O)nc1-2`, the IC50 is 0.251 µM.
With `O=C1C=C(Nc2ccccc2)c2ccccc2C1=O`, the IC50 is 6.64 µM.
As for `O=C(NC1=CC(=O)c2ccccc2C1=O)c1ccccc1`, the figure is 4.64 µM; as for `Nc1cc2c(cc1Br)[nH]c(=O)c1ccccc12`, “inactive”.
For `CCC(CNc1cc(OC)cc2cccnc12)NC1CCCCC1` (configuration not stated), the IC50 was 5.86 µM.
Regarding `CCOC(=O)N=Nc1c2ccccc2c2nc3no[nH]c3nc12`, the IC50 was 2.54 µM.
As for `O=C1Cc2ccccc2C(=O)N1Cc1ccccc1`, the IC50 was 1.19 µM.
On to `O=S(=O)(Nc1cc(Sc2ncn[nH]2)c(O)c2ccccc12)c1ccccc1`, for which the IC50 is 0.458 µM.
With `O=C(COC(=O)c1ccc([N+](=O)[O-])s1)Nc1ncc(C(F)(F)F)cc1Cl`, the IC50 entry is “inactive”.
On to `O=C(COC(=O)c1ccc([N+](=O)[O-])s1)NCc1ccc(F)cc1`, for which the half-inhibitory concentration (IC50) is 9.46 µM.
In the case of `COC1=C(N)C(=O)c2nc(C)ccc2C1=O`, the IC50 is 0.824 µM.
